This is an account of results in ChEMBL document CHEMBL1138236, “Novel aminophenyl benzamide-type histone deacetylase inhibitors with enhanced potency and selectivity” (J Med Chem, 2007).

Molecules are shown by their SMILES. A value given as a limit tells only on which side of the number the result lay.

The term IC50 denotes the point on the concentration scale where inhibition reaches its midpoint.

One test has as its target T1, Histone deacetylase 8 (Homo sapiens, UniProt Q9BY41).
T1 sequence (Q9BY41 whole entry): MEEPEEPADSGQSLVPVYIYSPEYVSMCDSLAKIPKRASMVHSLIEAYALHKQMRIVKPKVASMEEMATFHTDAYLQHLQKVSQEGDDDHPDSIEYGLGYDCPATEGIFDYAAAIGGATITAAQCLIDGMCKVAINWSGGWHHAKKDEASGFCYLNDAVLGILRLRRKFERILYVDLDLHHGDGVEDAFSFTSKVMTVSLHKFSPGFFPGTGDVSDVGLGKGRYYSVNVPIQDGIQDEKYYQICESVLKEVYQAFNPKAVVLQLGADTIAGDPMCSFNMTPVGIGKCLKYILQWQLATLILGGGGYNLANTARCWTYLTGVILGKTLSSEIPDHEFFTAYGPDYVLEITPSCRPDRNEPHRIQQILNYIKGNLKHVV
Description: Inhibition of human recombinant HDAC8.

The target of another test is Histone deacetylase. Description: Inhibition of HDAC in 293T cells. Type of test: cell-based, Homo sapiens.
The target of a further test is Histone deacetylase 3 (Homo sapiens, UniProt O15379). Briefly: Inhibition of human recombinant HDAC3.
Chain of Histone deacetylase 3 (O15379 whole entry): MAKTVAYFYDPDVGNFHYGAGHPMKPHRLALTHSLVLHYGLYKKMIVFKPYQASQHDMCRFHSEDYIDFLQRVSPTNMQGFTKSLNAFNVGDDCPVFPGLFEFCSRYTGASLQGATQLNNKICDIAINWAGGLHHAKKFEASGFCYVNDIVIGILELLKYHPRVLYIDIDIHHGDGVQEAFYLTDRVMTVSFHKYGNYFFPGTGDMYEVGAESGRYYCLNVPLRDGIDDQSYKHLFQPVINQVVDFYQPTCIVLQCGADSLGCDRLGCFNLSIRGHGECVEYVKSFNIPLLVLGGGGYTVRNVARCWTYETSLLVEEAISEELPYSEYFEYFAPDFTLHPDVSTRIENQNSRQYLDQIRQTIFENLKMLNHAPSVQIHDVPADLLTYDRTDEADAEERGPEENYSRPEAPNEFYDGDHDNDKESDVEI
Test [1] can be described thus: Cytotoxicity against human mammary epithelial cells by MTT assay. It counts as cell-based. The settings on record: Epithelial cell.
Another test deals with HCT-116. Briefly: Cytotoxicity against human HCT116 cells by MTT assay. It counts as functional, cell-based. (Tetrazolium dyes change colour on reduction, which living cells bring about.)
Another test deals with Histone deacetylase 2 (Homo sapiens, UniProt Q92769).
Chain of Histone deacetylase 2 (Q92769 whole entry): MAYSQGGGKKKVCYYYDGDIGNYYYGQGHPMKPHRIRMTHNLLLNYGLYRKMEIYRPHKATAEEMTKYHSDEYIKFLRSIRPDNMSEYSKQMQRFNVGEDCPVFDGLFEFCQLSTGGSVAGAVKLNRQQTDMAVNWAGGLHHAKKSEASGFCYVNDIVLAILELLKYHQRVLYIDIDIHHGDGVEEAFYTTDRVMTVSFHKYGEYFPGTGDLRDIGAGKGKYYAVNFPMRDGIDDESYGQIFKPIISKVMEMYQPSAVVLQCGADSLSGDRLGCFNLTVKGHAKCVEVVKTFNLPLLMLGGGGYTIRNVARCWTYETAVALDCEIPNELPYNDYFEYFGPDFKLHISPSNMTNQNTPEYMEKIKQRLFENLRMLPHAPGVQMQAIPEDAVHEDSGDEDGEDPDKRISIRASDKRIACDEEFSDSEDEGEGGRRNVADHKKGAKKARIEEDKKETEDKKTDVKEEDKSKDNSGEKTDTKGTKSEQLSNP
The target of another test is Histone deacetylase 1 (Homo sapiens, UniProt Q13547).
Chain of Histone deacetylase 1 (Q13547 whole entry): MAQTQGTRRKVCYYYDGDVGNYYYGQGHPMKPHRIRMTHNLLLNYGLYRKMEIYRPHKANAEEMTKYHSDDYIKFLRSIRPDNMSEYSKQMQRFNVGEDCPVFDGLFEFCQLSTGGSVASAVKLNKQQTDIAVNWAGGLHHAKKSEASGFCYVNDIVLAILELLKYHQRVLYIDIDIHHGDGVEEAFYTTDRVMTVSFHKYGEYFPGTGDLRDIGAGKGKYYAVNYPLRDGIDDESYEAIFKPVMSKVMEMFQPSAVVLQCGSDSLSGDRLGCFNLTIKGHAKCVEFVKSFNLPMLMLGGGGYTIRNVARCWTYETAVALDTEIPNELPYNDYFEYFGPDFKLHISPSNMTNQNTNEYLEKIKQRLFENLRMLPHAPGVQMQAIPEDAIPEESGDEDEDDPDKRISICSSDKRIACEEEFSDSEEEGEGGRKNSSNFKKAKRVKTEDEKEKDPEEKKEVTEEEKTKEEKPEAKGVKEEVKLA

Description for Histone deacetylase 1: Inhibition of human recombinant HDAC1
Description for Histone deacetylase 2: Inhibition of human recombinant HDAC2

Take `Nc1ccccc1NC(=O)c1ccc2nccnc2c1`: the IC50 at Histone deacetylase 8 was greater than 20000 nM; against Histone deacetylase it was 3000 nM; at Histone deacetylase 3 it was greater than 20000 nM; in test [1], greater than 50000 nM; with HCT-116 it was 11000 nM; on Histone deacetylase 2, 2000 nM. Also, the midpoint of inhibition against Histone deacetylase 1, the IC50, lay at 2000 nM.

For `COc1ccc(C(=O)Nc2cc(-c3cccs3)ccc2N)cc1`, the IC50 on Histone deacetylase 8 was greater than 20000 nM; against Histone deacetylase, 150 nM; at Histone deacetylase 3, greater than 20000 nM; in test [1], greater than 50000 nM; with HCT-116 it was 400 nM; against Histone deacetylase 2, 200 nM. For the same molecule, at Histone deacetylase 1, the IC50 is 50 nM.

For `COc1ccc(C(=O)Nc2ccccc2N)cc1`, the 50% inhibitory concentration (IC50) at Histone deacetylase 8 was greater than 20000 nM; on Histone deacetylase, 3000 nM; on Histone deacetylase 3 it was 1400 nM; in test [1], greater than 50000 nM; with HCT-116, 10000 nM; on Histone deacetylase 2, 900 nM. Also, the 50% inhibitory concentration (IC50) against Histone deacetylase 1 is 2000 nM.

On to `COc1ccc(NCc2ccc(C(=O)Nc3cc(-c4ccoc4)ccc3N)cc2)cc1OC`, for which the half-inhibitory concentration (IC50) at Histone deacetylase 2 was found to be 70 nM; on Histone deacetylase 1, 50 nM.

For `COc1ccc(NCc2ccc(C(=O)Nc3cc(-c4cc5ccccc5s4)ccc3N)cc2)cc1OC`, the IC50 at Histone deacetylase 2 and at Histone deacetylase 1 was greater than 10000 nM in each case.

For the molecule `Nc1ccc(-c2cccs2)cc1NC(=O)c1ccc2nccnc2c1`, the IC50 at Histone deacetylase 8 is greater than 20000 nM; against Histone deacetylase, 900 nM; at Histone deacetylase 3 it was greater than 20000 nM; in test [1] it was 26000 nM; in the test on HCT-116 it was 900 nM; on Histone deacetylase 2, 200 nM. The molecule further came in with an IC50 at Histone deacetylase 1 of 60 nM.

On to `COc1ccc(NCc2ccc(C(=O)Nc3ccc(-c4cccs4)cc3N)cc2)cc1OC`, for which the IC50 at Histone deacetylase 2 and against Histone deacetylase 1 was greater than 10000 nM in each case.

In the case of `COc1ccc(NCc2ccc(C(=O)Nc3ccccc3O)cc2)cc1OC`, inhibition against Histone deacetylase 2 was half-maximal at 200 nM (IC50).

In turn, `COc1ccc(NCc2ccc(C(=O)Nc3cc(-c4ccsc4)ccc3N)cc2)cc1OC` returned an IC50 against Histone deacetylase 2 of 60 nM.

Regarding `O=C(/C=C/c1ccc(CN(CCO)CCc2c[nH]c3ccccc23)cc1)NO` [DACINOSTAT], the IC50 was 1000 nM in test [1] and less than 50 nM with HCT-116.

Regarding `CC(=O)Nc1ccc(C(=O)Nc2ccccc2N)cc1` [TACEDINALINE], the values for the concentration for half-maximal inhibition (IC50) (in test [1]; in the test on HCT-116) were greater than 50000 nM and 4000 nM, respectively.

`COc1ccc(NCc2ccc(C(=O)Nc3cc(-c4cccs4)ccc3N)cc2)cc1OC`: the half-maximal inhibitory concentration (IC50) against Histone deacetylase 2 was 80 nM; against Histone deacetylase 1 it was 50 nM.

With `COc1ccc(NCc2ccc(C(=O)Nc3cc(-c4cccs4)ccc3O)cc2)cc1OC`, the half-inhibitory concentration (IC50) on Histone deacetylase 2 was 60 nM; at Histone deacetylase 1, 40 nM.

Consider `CC(=O)Nc1ccc(C(=O)Nc2cc(-c3cccs3)ccc2N)cc1`, for which the IC50 at Histone deacetylase 8 is greater than 20000 nM; in test [1], greater than 50000 nM; in the test on HCT-116, 500 nM.

`COc1ccc(NCc2ccc(C(=O)Nc3cc(-c4ccccc4)ccc3N)cc2)cc1OC`: on Histone deacetylase 2, half-maximal inhibition (IC50) required 100 nM.

At Histone deacetylase 2, `Nc1ccc(-c2cccs2)cc1NC(=O)c1ccc(CNC(=O)OCc2cccnc2)cc1` had an IC50 of 100 nM.

On to `COc1ccc(NCc2ccc(C(=O)Nc3ccccc3N)cc2)cc1OC`, for which the half-maximal inhibitory concentration (IC50) against Histone deacetylase 2 stood at 500 nM; against Histone deacetylase 1 it was 440 nM.
